Four compounds from US10100078B2, “Nanoparticles, process for preparation and use thereof as carrier for amphipatic and hydrophobic molecules in fields of medicine including cancer treatment and food related compounds” (priority 2011, dated 2018) can be followed below.

The test system of one data set is HL-60 AML cells. The data set can be described thus: FMCA cancer cell killing effect on HL-60 AML cells. Format: cell-based, human. The settings on record: HL-60, 3 days, pre-determined concentrations, alone or combined; FIG. 7.
The test system of data set [1] is PC-3 prostate cancer cells. The data set can be described thus: FMCA cancer cell killing effect on PC-3 prostate cancer cells. Format: cell-based, human. The settings on record: PC-3, 3 days.
Experimental: The human prostate adenocarcinoma, PC-3, cultured in a 50/50 mixture of HAM's F-12K and RPMI-1640. […] All media were supplemented with 10% heat-inactivated fetal calf serum (FCS), 2 mM glutamine, 100 μg/ml streptomycin and 100 IE/ml penicillin (all from Sigma Aldrich Co, St Louis, Mo., USA). All cell lines were incubated at 37° C. in humidified air containing 5% CO2.
The FMCA method is based on measurement of fluorescence generated from hydrolysis of fluorescein diacetate (FDA) to fluorescein by cells with intact plasma membranes. After above mentioned incubation for 3 days, the medium was removed by aspiration. […] The plates were incubated for 45 minutes and the generated fluorescence from each well was measured in a 96-well scanning fluorometer. The fluorescence is proportional to the number of intact cells in the well. Quality criteria for a successful analysis included a fluorescence signal in the control wells of more than five times of the mean blank value, a mean co-efficient of variation (CV) in the control wells of less than 30%.
The samples were 5-fold serially diluted in 6 steps starting from the concentration of 100 μg/ml, and incubated with PC-3 prostate cancer cells for 3 days. Then the cells were stained and read by the FMCA method.
PC-3 cells were exposed for 3 days at pre-determined concentrations of G3 and docetaxel separately and in combination as shown on the graph. […]
The nature of data set [2]: Detection of vitamin D3 in the water phase (DiaSorin Liaison). The data set is classed as physicochemical. As to conditions: 50% cholesterol and 50% vitamin D3 membrane, assay has about one percent cross-reactivity with vitamin D3. As for the experimental part:
Samples with cholecalciferol (vitamin D3) incorporated in G3 particles were analysed at a University Hospital Laboratory on a Liaison automatic instrument. Although the assay (DiaSorin Liaison) is designed to measure 25-HO-D3 it has about one percent cross-reactivity with non-hydroxylated vitamin D3.
G3 particles were formed using 50% cholesterol and 50% vitamin D3 to form the lipid membrane. Quil A was added into the water phase to generate the G3 particles (for details, please refer to Example 1). 100% Cholesterol and 100% Vitamin D3 in water were used as the controls. Samples with vitamin D3 incorporated in G3 particles were analysed at the Uppsala University Hospital Laboratory on a DiaSorin Liaison automatic instrument.

Experimental for HL-60 AML cells: All media were supplemented with 10% heat-inactivated fetal calf serum (FCS), 2 mM glutamine, 100 μg/ml streptomycin and 100 IE/ml penicillin (all from Sigma Aldrich Co, St Louis, Mo., USA). All cell lines were incubated at 37° C. in humidified air containing 5% CO2.
The FMCA method is based on measurement of fluorescence generated from hydrolysis of fluorescein diacetate (FDA) to fluorescein by cells with intact plasma membranes. After above mentioned incubation for 3 days, the medium was removed by aspiration. After one wash with PBS, 100 μl/well of FDA dissolved in a physiological buffer (10 μg/ml) was added. The plates were incubated for 45 minutes and the generated fluorescence from each well was measured in a 96-well scanning fluorometer. The fluorescence is proportional to the number of intact cells in the well. Quality criteria for a successful analysis included a fluorescence signal in the control wells of more than five times of the mean blank value, a mean co-efficient of variation (CV) in the control wells of less than 30%.
The samples were 5-fold serial diluted in 6 steps starting from 100 μg/ml, and incubated or 3 days with HL-60 AML cells f. Then the cells were stained and read by the FMCA method.
HL-60 AML cells were exposed for 3 days at pre-determined concentrations of G3 and cytarabine separately and in combination of these two as shown on FIG. 7. […]

On to `Nc1ccn([C@@H]2O[C@H](CO)[C@@H](O)[C@@H]2O)c(=O)n1` [cytarabine], for which the cells killed in the data set on HL-60 AML cells turned out to be 55%. On to `CC(=O)O[C@@]12CO[C@@H]1C[C@H](O)[C@@]1(C)C(=O)[C@H](O)C3=C(C)[C@@H](OC(=O)[C@H](O)[C@@H](NC(=O)OC(C)(C)C)c4ccccc4)C[C@@](O)([C@@H](OC(=O)c4ccccc4)[C@H]21)C3(C)C` [docetaxel], for which, in data set [1] (pre-determined concentrations, alone or combined, FIG. 10), the cells killed is 2%. Turning to `C=C1CC[C@H](O)C/C1=C/C=C1\CCC[C@]2(C)[C@@H]([C@H](C)CCCC(C)C)CC[C@@H]12` [vitamin D3 control, cholecalciferol], in data set [2], the “vitamin D3 detected” value is reported as “only trace amount”.

Regarding `CO[C@H]1C(=O)[C@]2(C)[C@@H](OC)C[C@H]3OC[C@@]3(OC(C)=O)[C@H]2[C@H](OC(=O)c2ccccc2)[C@]2(O)C[C@H](OC(=O)[C@H](O)[C@@H](NC(=O)OC(C)(C)C)c3ccccc3)C(C)=C1C2(C)C` [Cabazitaxel, cabazitaxel], the IC50 in data set [1] (Homo sapiens, 72 h, cabazitaxel from 100 μM, alone or with G3 fixed 1 μM, FIG. 11) came to 25.5 µM.

What is called IC50 is the concentration at which inhibition is half-maximal. Read a high IC50 as weaker potency in that assay.
